Test results published in US8524692B2, “Ocular compositions containing dioleoylphosphatidylglycerol and uses thereof” (Georgia Health Sciences University Research Institute, Inc., priority 2010, dated 2013).

Columns and labels:
keratinocytes [1] = details: concentrations from 0.1 to 1%; cited from earlier work
keratinocytes [2] = assay: [3H]Thymidine incorporation into DNA in keratinocytes; type: cell-based; details: for promotion of proliferation in slowly dividing keratinocytes / inhibition of proliferation in rapidly dividing keratinocytes: 24 hours, PG species prepared by bath sonication, compared with egg phosphatidylglycerol
Description: Keratinocytes were treated for 24 hours with the indicated concentrations of different phosphatidylglycerol species, prepared via bath sonication of phospholipid in serum-free keratinocyte medium. [^3H]Thymidine incorporation into DNA was then determined in duplicate and averaged. All data were transformed prior to analyses to improve assumptions of normality and additivity for the models to be used. Experiments were grouped that had different responses to egg phosphatidylglycerol using finite mixture regression models and the flexmix package in R (1). This method clusters each experiment by the regression fit between In(CPM) and In(concentration), grouping cultures with similar regression lines in the same cluster. The number of clusters was determined using the Bayesian information criterion (BIC). A mixed model analysis of variance was used, conducted using the Proc Mixed procedure in SAS 9.13, separately for each of the grouped clusters to determine how the different phosphatidylglycerol species affected the relationship between cell proliferation and phosphatidylglycerol concentration. The model used for this analysis of variance included phosphatidylglycerol species as a fixed effect that potentially interacted with In(concentration), and random coefficients for each culture/experiment. The number of experiments segregating into each cluster are indicated and *p<0.05 versus the response to egg phosphatidylglycerol liposomes.
[^3H]Thymidine Incorporation Assays: [^3H]Thymidine incorporation into DNA is measured as described (62).
The effect of providing phosphatidylglycerol directly to keratinocytes in the form of liposomes was examined, since direct provision of phosphatidylglycerol itself should also trigger early differentiation. […] The egg phosphatidylglycerol used in these experiments is composed primarily of the dioleoyl and dipalmitoyl species; therefore, that there is no effect of dipalmitoyl-PP on DNA synthesis was also determined. On the other hand, if phosphatidylglycerol liposomes are applied to keratinocytes with decreased proliferative capacity, presumably as the result of contact inhibition (and as indicated by reduced [3H]thymidine incorporation into DNA under control conditions), DNA synthesis is stimulated in a dose-dependent manner, with a half-maximal effect at a concentration of approximately 35_g/mL and a maximal stimulation at 100 μg/mL.

[3] = system: transformed human corneal epithelial cells; assay: Scratch wound closure assay in corneal epithelial cells; type: cell-based; details: 24 hours
Description: SV40-immortalized human corneal epithelial cells were cultured in a 1:1 mixture of defined keratinocyte serum free (dKSF) medium (Gibco) and minimum essential medium (Cellgro) until confluent. A pipet tip was then used to create a scratch wound in the confluent monolayer. Cells were rinsed with PBS to remove unattached and damaged cells and photographed under the microscope. The medium was replaced with dKSF containing the indicated additions (Ca corresponds to 1 mM Ca^2+). Cells were incubated for 24 hours and photographed again. Percent wound closure was calculated as the change in width of the scratch wound compared to the size of the initial wound and was expressed relative to the control (medium with no additions containing 90 μM Ca^2+); *p<0.05; **p<0.01 versus the control (n=3).
FIGS. 8A-8B show the effect of egg phosphatidylglycerol and dioleoylphosphatidylglycerol on wound closure in transformed human corneal epithelial cells. SV40-immortalized human corneal epithelial cells were cultured in a 1:1 mixture of defined keratinocyte serum free (dKSF) medium (Gibco) and minimum essential medium (Cellgro) until confluent. […] Percent wound closure was calculated as the change in width of the scratch wound compared to the size of the initial wound and was expressed relative to the control (medium with no additions); *p<0.05 versus the control (n=3). […]

PLD = details: acute stimulation, radiolabeled phosphatidylethanol production; cited from earlier work
keratinocytes [4] = details: cited from earlier work
[5] = system: SV40-immortalized human corneal epithelial cells; assay: [3H]Thymidine incorporation into DNA in corneal epithelial cells; type: cell-based; details: 1 mM calcium versus control 90 μM, 24 hours
Description: [^3H]Thymidine incorporation into DNA was then determined. Values represent the means±SEM of 3 separate experiments performed in duplicate; *p<0.05, **p<0.01 versus the control value.
SV40-immortalized human corneal epithelial cells were cultured in a 1:1 mixture of defined keratinocyte serum free (dKSF) medium (Gibco) and minimum essential medium (Cellgro) until approximately 70% confluent. […] [^3H]Thymidine incorporation into DNA was then determined. Values represent the means±SEM of 4 separate experiments performed in duplicate; *p<0.01 versus the control value.
The cells are cultured in defined keratinocyte serum-free (dKSF) medium (Gibco) and passaged following trypsinization from the culture dish.

OC[C@@H](O)[C@@H](O)[C@H](O)[C@@H](O)CO [sorbitol]
effect on DNA synthesis ([3H]thymidine incorporation) in keratinocytes (keratinocytes [1]): little or no effect

CCCCCCCC/C=C\CCCCCCCC(=O)OC[C@H](COP(=O)(O)OCC(O)CO)OC(=O)CCCCCCC/C=C\CCCCCCCC (stereo partly drawn) [dioleoylphosphatidylglycerol]
promotion of proliferation in slowly dividing keratinocytes (keratinocytes [2]): especially effective proproliferative
wound closure ([3]; 50 mg/ml liposomes, relative to control): significantly enhanced wound closure

CCCCCCCC/C=C\CCCCCCCC(=O)O[C@H](COC(=O)CCCCCCCCCCCCCCC)COP(=O)(O)OCC(O)CO (stereo partly drawn) [Palmitoyl, oleoyl-PG, palmitoyloleoylphosphatidylglycerol]
promotion of proliferation in slowly dividing keratinocytes (keratinocytes [2]): especially effective proproliferative

CCCCCCCCCCCCCCCC(=O)OC[C@H](COP(=O)(O)OCCC)OC(=O)CCCCCCCCCCCCCCC [dipalmitoyl-PP]
effect of liposomes on DNA synthesis in highly proliferative keratinocytes (keratinocytes [2]; liposomes): no effect

CCCCCCCCCCCCCC(=O)O[C@@H]1[C@@H](C)[C@@]2(O)[C@@H](C=C(CO)C[C@]3(O)C(=O)C(C)=C[C@@H]23)[C@H]2C(C)(C)[C@]12OC(C)=O [TPA]
PLD activity (PLD): activates PLD
radiolabeled phosphatidylglycerol levels (keratinocytes [4]; acute stimulation): no increase

palmitoyl, linoleoyl-PG
inhibition of proliferation in rapidly dividing keratinocytes (keratinocytes [2]): particularly effective at inhibiting proliferation

CCCCC/C=C\C/C=C\CCCCCCCC(=O)OC[C@H](COP(=O)(O)OCC(O)CO)OC(=O)CCCCCCC/C=C\C/C=C\CCCCC (stereo partly drawn) [dilinoleoyl-PG]
inhibition of proliferation in rapidly dividing keratinocytes (keratinocytes [2]): particularly effective at inhibiting proliferation

OCC(O)CO [glycerol]
inhibition of DNA synthesis together with elevated extracellular calcium [5]: more efficiently inhibit DNA synthesis than either agent alone
effect on DNA synthesis ([3H]thymidine incorporation) in keratinocytes (keratinocytes [1]): inhibited DNA synthesis
wound closure ([3]; 0.05% glycerol and calcium (1 mM Ca2+)): significantly enhanced wound closure

OC[C@@H](O)[C@H](O)[C@@H](O)CO [xylitol]
effect on DNA synthesis ([3H]thymidine incorporation) in keratinocytes (keratinocytes [1]): little or no effect

Palmitoyl, arachidonyl-PG
inhibition of proliferation in rapidly dividing keratinocytes (keratinocytes [2]): particularly effective at inhibiting proliferation

C=C1/C(=C\C=C2/CCC[C@]3(C)[C@@H]([C@H](C)CCCC(C)(C)O)CC[C@@H]23)C[C@@H](O)C[C@@H]1O [1,25-dihydroxyvitamin D3]
radiolabeled PG formation (keratinocytes [4]; 250 nM, 24 hours): a decrease
